In assay [1] the test system is MDA-MB-231 cells. In words: MTT assay, MDA-MB-231. Type of assay: cell-based, human. To be noted: Homo sapiens, MDA-MB-231, 24 h, 0 to 250 μM, read-out: IC50 Breast Cancer (MDA-MB-231). On the procedure: (§1) To establish the cytotoxic effect of the nitrogenous derivatives, cells were treated with various concentrations of the drugs ranging from 0 to 250 μM. Following a 24 h incubation period, cell viability was assessed using the MTT assay. Mitoxantrone served as a positive control to evaluate growth inhibition. Since heterogeneity is a hallmark of cancer, the study included cell lines with diverse genomic and proteomic profiles. […] In this regard, further optimization would be required to increase the selective therapeutic potential of compound 9. To determine whether the anti-proliferative effect of the nitrogen derivatives could be translated to other malignancies, we tested the cytotoxic effect on the HCT8 (colorectal cancer) cell line. HCT8 is an adenocarcinoma driven by the Kirsten Rat Sarcoma (KRAS) mutation, unlike MCF-10A [28].
(§2) The MTT assay was utilized to examine the imidazole derivatives’ anti-proliferative activity against MCF-10A, MDA-MB-231, and HCT8 cell lines, purchased from ATCC, USA [47]. Firstly, 5 × 10^3 cells/well were seeded in a 96-well plate in 100 μL of growth medium and were subsequently cultured overnight with various concentrations of each compound ranging from 0 to 250 µM [48]. The media was aspirated, and 50 µL of serum-free media and 50 µL of MTT solution were added to each well. Next, cells were incubated at 37 °C for 3 h, then 150 µL of MTT solvent was added into each well. After that, plates were wrapped in foil and agitated for 15 min on an orbital shaker. Finally, the absorbance was measured within 1 h at OD590 nm. Half-maximal inhibitory concentration IC50 values (μM) were calculated for each compound from the dose–response curve. Experiments were performed in triplicates.

The test system of assay [2] is MDA-MB-231 cells. The assay can be described thus: CellTiter-Glo assay, MDA-MB-231. Type of assay: cell-based. Particulars: Homo sapiens, 24 h, read-out: IC50 Breast Cancer MDA-MB-231. The method, then: (§3) To validate the anti-proliferative activity of the imidazole derivatives, the compounds were tested against several cancer cell lines, which included breast cancer (MDA-MB-231, KAIMRC1, and KAIMRC2), colorectal cancer (HCT8), and acute promyelocytic leukemia cells (HL60). KAIMRC1 was isolated from a person with stage II-B breast cancer and is ER+/PR+ and HER2-. In comparison, KAIMRC2 was isolated from a person with metastasized breast cancer and is a triple-negative (ER-/PR-, and HER2-) tumor cell line.
(§4) The CellTiter-Glo assay (Promega™, Madison, WI, USA) was used to evaluate imidazole and oxazolone derivatives cytotoxicity against various cancer cell lines; MCF-10A, HL60, MDA-MB-231, and HCT8, purchased from ATCC, USA, except KAIMRC1 and KAIMRC2, which were isolated, established, and characterized in the core laboratory facility KAIMRC, Riyadh, Saudi Arabia. The cells were seeded in white 96-well plates at a density of 5 × 10^3 cells/well in a 100 μL of growth medium with various concentrations of each compound ranging from 0 to 250 µM. Cells were incubated at 37 °C for 24 h. Plates were equilibrated at RT for 30 min. A quantity of 100 µL of CellTiter-Glo reagent was added to each well and mixed for 2 min on an orbital shaker. Plates were incubated for 10 min at RT before measuring the luminescence using an Envision plate reader (Perkin Elmer). Half-maximal inhibitory concentration IC50 values (μM) were calculated for each imidazole derivative from the dose–response curve. The cytotoxic effect at a concentration <10 µM was considered strongly active and from 11 to 100 µM was considered moderately active, whereas above 100 µM was deemed non-active. Mitoxantrone was utilized as a positive control. Experiments were performed in triplicates.

Another assay deals with KAIMRC1 cells. The assay can be described thus: CellTiter-Glo assay, KAIMRC1. To be noted: Homo sapiens, 24 h, read-out: IC50 Breast Cancer KAIMRC1. The assay is classed as cell-based. On the procedure:
as §3, §4
In general terms: ATP-based viability assays read luminescence as a measure of living cells.

A further assay has as its system KAIMRC2 cells. The assay can be described thus: CellTiter-Glo assay, KAIMRC2. Type of assay: cell-based. Particulars: Homo sapiens, 24 h, read-out: IC50 Breast Cancer KAIMRC2. On the procedure:
as §3, §4

For assay [3], the system named is HCT8 cells. The assay can be described thus: MTT assay, HCT8. The assay is classed as cell-based. To be noted: Homo sapiens, HCT-8, 24 h, 0 to 250 μM, read-out: IC50 Colorectal Cancer (HCT8). On the procedure: as §1, §2
A general note: Formazan colour is commonly taken as a measure of viable cells.

A further assay has as its system MCF-10A cells. In words: MTT assay, MCF-10A. To be noted: Homo sapiens, MCF-10A, 24 h, 0 to 250 μM, read-out: IC50 Non-Malignant Breast Epithelial Cells (MCF-10A). The assay is classed as cell-based, human. On the procedure:
as §1, §2

Another assay has as its system HL60 cells. The assay can be described thus: CellTiter-Glo assay, HL60. Type of assay: cell-based, human. To be noted: Homo sapiens, HL-60, 24 h, read-out: IC50 Leukemia HL60. On the procedure:
as §3, §4

The test system of assay [4] is HCT8 cells. The assay can be described thus: CellTiter-Glo assay, HCT8. Particulars: Homo sapiens, HCT-8, 24 h, read-out: IC50 Colorectal Cancer HCT8. Type of assay: cell-based. The method, then: as §3, §4

What is called IC50 is the concentration needed to halve the response being measured. With `NN1C(=O)/C(=C/c2ccccc2)N=C1c1ccccc1` [Compound 14], the half-maximal inhibitory concentration (IC50) with MDA-MB-231 cells [1] was 139 µM; in the assay on MDA-MB-231 cells [2], 243 µM; with KAIMRC1 cells it was 243 µM; in the assay with KAIMRC2 cells it was 161 µM.
Turning to `O=C1OC(c2ccccc2)=N/C1=C\c1ccccc1` [Compound 1], the IC50 is 22.9 µM in the assay on MDA-MB-231 cells [1], 51.1 µM in the assay with HCT8 cells [3], 62.2 µM in the assay with KAIMRC1 cells and 59.2 µM in the assay on KAIMRC2 cells.
In the case of `O=C1OC(c2ccccc2)=N/C1=C\c1ccccc1O` [Compound 5], the IC50 was 39.6 µM in the assay with MDA-MB-231 cells [1]; 34.2 µM with MCF-10A cells; 39.1 µM in the assay with HCT8 cells [3]; 17.9 µM with HL60 cells; 52.1 µM with MDA-MB-231 cells [2]; 28.6 µM in the assay with KAIMRC1 cells. In addition, the IC50 in the assay with KAIMRC2 cells came to 30.3 µM; in the assay on HCT8 cells [4], 63.7 µM.
As to `COc1ccc(/C=C2\N=C(c3ccccc3)N(N)C2=O)cc1` [Compound 13], the IC50 in the assay on MDA-MB-231 cells [1] was 78.5 µM.
Take `COc1cc(/C=C2\N=C(c3ccccc3)OC2=O)ccc1O` [Compound 6]: the IC50 in the assay with MDA-MB-231 cells [1] is 50.6 µM; in the assay with MCF-10A cells, 50.4 µM; with HCT8 cells [3] it was 70.8 µM.
Take `O=C1/C(=C/c2ccccc2O)N=C(c2ccccc2)N1Nc1ccc([N+](=O)[O-])cc1[N+](=O)[O-]` [Compound 10]: in the assay on MDA-MB-231 cells [1], the IC50 was found to be 56 µM.
`COc1cc(/C=C2\N=C(c3ccccc3)N(Nc3ccc([N+](=O)[O-])cc3[N+](=O)[O-])C2=O)ccc1O` [Compound 11]: the IC50 in the assay with MDA-MB-231 cells [1] is 57.1 µM; in the assay with HL60 cells, 20.9 µM; with MDA-MB-231 cells [2] it was 45.4 µM; with KAIMRC1 cells, 24.8 µM; in the assay with KAIMRC2 cells, 32.2 µM; with HCT8 cells [4], 40.4 µM.
On to `O=C1OC(c2ccccc2)=N/C1=C\c1ccco1` [Compound 7], for which the IC50 in the assay with MDA-MB-231 cells [1] was found to be 23 µM; with MCF-10A cells, 63 µM; in the assay on HCT8 cells [3], 73.5 µM; with HL60 cells, 67.4 µM; in the assay with MDA-MB-231 cells [2], 60.9 µM; with KAIMRC1 cells, 39.2 µM. In addition, the values for the half-inhibitory concentration (IC50) with KAIMRC2 cells and in the assay with HCT8 cells [4] were 87.9 µM and 91.2 µM, respectively.
Turning to `O=C1OC(c2ccccc2)=N/C1=C\C=C\c1ccccc1` [Compound 2], the IC50 in the assay with MDA-MB-231 cells [1] was 43.6 µM; in the assay on MCF-10A cells it was 65.5 µM; in the assay on HCT8 cells [3] it was 72.2 µM; in the assay on KAIMRC1 cells, 104 µM; in the assay on KAIMRC2 cells, 121 µM; with HCT8 cells [4], 121 µM.
For the compound `CN(C)c1ccc(/C=C2\N=C(c3ccccc3)OC2=O)cc1` [Compound 4], the IC50 in the assay with MDA-MB-231 cells [1] was 69.4 µM.
On to `O=C1/C(=C/c2ccco2)N=C(c2ccccc2)N1Nc1ccc([N+](=O)[O-])cc1[N+](=O)[O-]` [Compound 12], for which the IC50 with MDA-MB-231 cells [1] was 50.8 µM.
With `O=C1c2c(O)ccc(O)c2C(=O)c2c(NCCNCCO)ccc(NCCNCCO)c21` [Mitoxantrone, reference compound], the IC50 in the assay on MDA-MB-231 cells [1] turned out to be 3.17 µM; in the assay on MCF-10A cells, 2.9 µM; in the assay with HCT8 cells [3], 0.711 µM; in the assay on HL60 cells, 0.125 µM; with MDA-MB-231 cells [2], 1.94 µM; in the assay on KAIMRC1 cells it was 1.71 µM. Also, the IC50 with KAIMRC2 cells was 0.801 µM; in the assay on HCT8 cells [4], 5.62 µM.
In the case of `COc1cccc(/C=C2\N=C(c3ccccc3)OC2=O)c1` [Compound 3], the IC50 with MDA-MB-231 cells [1] was determined as 40 µM; in the assay on KAIMRC1 cells, 58.6 µM; in the assay with KAIMRC2 cells, 64.3 µM.
